According to the supplement of paper PMC8671470:

Legend:
Settings in all cases: 72 h
[1] = system: myeloid leukemia patient primary cells Pat.4; assay: area under dose-response curve (viability, 1 nM-10 uM) (fraction (0-1)); higher = more sensitive
Description: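 AUC (0–1, higher = more sensitive) of the 5-point dose–response (1 nM–10 µM, 72 h, CellTiter-Glo) in primary AML/CML patient mononuclear cells. 0.030103 is the floor for inactive compounds.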

THP-1 = system: THP-1
How it was run: (§1)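 Fifteen myeloid leukaemia cell lines were seeded in RPMI 1640 at a density titrated to the linear growth range. Each line went into 384-well plates with compounds acoustically pre-printed at five tenfold doses from 1 to 10,000 nM, in duplicate, and was incubated for 72 h at 37 °C with 5% CO2. Luminescent ATP viability was normalised to vehicle and to a positive control at 10 µM. The IC50 came from four-parameter log-logistic dose–response fits.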

BV-173 = system: BV-173
How it was run: as §1

MOLM-13 = system: MOLM-13
How it was run: as §1

Mono-Mac-6 = system: Mono-Mac-6
How it was run: as §1

K-562 = system: K-562
How it was run: as §1

KG-1 = system: KG-1
How it was run: as §1

KCL-22 = system: KCL-22
How it was run: as §1

LAMA-84 = system: LAMA-84
How it was run: as §1

KU-812 = system: KU-812
How it was run: as §1

ML-2 = system: ML-2
How it was run: as §1

SHI-1 = system: SHI-1
How it was run: as §1

HEL = system: HEL
How it was run: as §1

HL-60 = system: HL-60
How it was run: as §1

NOMO-1 = system: NOMO-1
How it was run: as §1

[2] = system: myeloid leukemia patient primary cells Pat.4; assay: cell viability (% survival relative to DMSO control); higher = less cytotoxic
How it was run: (§2)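 Thawed, Ficoll-purified mononuclear cells from AML or CML patients in RPMI 1640 with 10% FBS were seeded at 10,000 cells/well on 384-well plates pre-printed with 70 compounds at five tenfold concentrations, 1–10,000 nM, in duplicate, for 72 h. Viability was read by CellTiter-Glo and normalised to DMSO and 10 μM proteasome-inhibitor wells. Where given, area under the curve came from four-parameter log-logistic fits (drc, PharmacoGx R packages).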

[3] = system: myeloid leukemia patient primary cells Pat.7; assay: as above
How it was run: as §2

[4] = system: myeloid leukemia patient primary cells Pat.6; assay: as above
How it was run: as §2

[5] = system: myeloid leukemia patient primary cells Pat.13; assay: as above
How it was run: as §2

[6] = system: myeloid leukemia patient primary cells Pat.12; assay: as above
How it was run: as §2

[7] = system: myeloid leukemia patient primary cells Pat.1; assay: as above
How it was run: as §2

[8] = system: myeloid leukemia patient primary cells Pat.9; assay: as above
How it was run: as §2

[9] = system: myeloid leukemia patient primary cells Pat.2; assay: as above
How it was run: as §2

[10] = system: myeloid leukemia patient primary cells Pat.15; assay: as above
How it was run: as §2

[11] = system: myeloid leukemia patient primary cells Pat.3; assay: as above
How it was run: as §2

[12] = system: myeloid leukemia patient primary cells Pat.10; assay: as above
How it was run: as §2

[13] = system: myeloid leukemia patient primary cells Pat.14; assay: as above
How it was run: as §2

[14] = system: myeloid leukemia patient primary cells Pat.11; assay: as above
How it was run: as §2

[15] = system: myeloid leukemia patient primary cells Pat.8; assay: as above
How it was run: as §2

[16] = system: myeloid leukemia patient primary cells Pat.5; assay: as above
How it was run: as §2

O=C(C1CC1)N1CC[C@@H](C=C2NNC(=O)N2c2ccc(-c3ccc4occc4c3)cc2)C1
Settings	IC50 (cell viability) [nM]	area under dose-response curve
BV-173	> 10000	–
HEL	> 10000	–
HL-60	43.7	–
K-562	> 10000	–
KCL-22	9060	–
KG-1	> 10000	–
KU-812	> 10000	–
LAMA-84	> 10000	–
ML-2	> 10000	–
MOLM-13	1470	–
Mono-Mac-6	> 10000	–
NOMO-1	> 10000	–
SHI-1	> 10000	–
THP-1	> 10000	–
[1]	–	< 0.0301

cell viability [%]
Settings	1 nM	10 nM	100 nM	1000 nM	10000 nM
[2]	79.7	87.2	90.8	92.1	71.6
[3]	> 100	97.1	81.9	51.6	71.6
[4]	98.1	97.7	> 100	89.4	79.5
[5]	85.5	96.1	92.9	86.5	80.1
[6]	95.4	92.8	> 100	89	84.1
[7]	87	89	> 100	96.2	79.7
[8]	95.6	80.9	87.2	45.5	33.2
[9]	> 100	99	> 100	95.2	91.7
[10]	89.4	95.2	95.7	90.3	84
[11]	93.5	> 100	84.2	78.8	77.1
[12]	80.8	46.1	50.2	67	47.8
[13]	92.5	91.4	96.2	77.3	79.5
[14]	94.6	98	99.7	91.5	88
[15]	85.5	95.4	74	92.2	73.2
[16]	73	> 100	72.3	35.3	17.1

N#CC(C#N)=NNc1ccc(OC(F)(F)F)cc1 [FCCP]
Settings	IC50 (cell viability) [nM]	area under dose-response curve
BV-173	2050	–
HEL	1960	–
HL-60	2660	–
K-562	1730	–
KCL-22	1820	–
KG-1	2340	–
KU-812	1390	–
LAMA-84	2010	–
ML-2	2090	–
MOLM-13	2110	–
Mono-Mac-6	2380	–
NOMO-1	3010	–
SHI-1	4020	–
THP-1	3770	–
[1]	–	0.229

cell viability [%]
Settings	1 nM	10 nM	100 nM	1000 nM	10000 nM
[2]	89	90.4	97.9	53.6	4.18
[3]	82.8	82.5	93.6	< 0	< 0
[4]	87	97.4	88.8	65.5	20
[5]	85	> 100	89.8	59.4	4.66
[6]	> 100	93.3	99.7	89.5	36.1
[7]	90.1	89.9	> 100	59.9	5.44
[8]	54	63.1	82.9	3.45	0.492
[9]	92.5	90.8	> 100	95.3	30
[10]	91.2	99.1	94.5	81.5	3.23
[11]	88.5	82.9	94.9	3.06	< 0
[12]	66.5	64	50.5	7.03	2.16
[13]	67.3	93.7	94.6	17.4	0.937
[14]	98	97.3	> 100	82.4	9.9
[15]	71.4	91.6	82.1	89.1	3.73
[16]	19.1	52.4	14.8	< 0	3.45

O=C1c2cc([N+](=O)[O-])ccc2-n2c1nc1ccccc1c2=O [GNF-Pf-3777]
Settings	IC50 (cell viability) [nM]	area under dose-response curve
BV-173	1640	–
HEL	934	–
HL-60	1280	–
K-562	1110	–
KCL-22	538	–
KG-1	1290	–
KU-812	1310	–
LAMA-84	1830	–
ML-2	6050	–
MOLM-13	1580	–
Mono-Mac-6	1780	–
NOMO-1	5990	–
SHI-1	1930	–
THP-1	1220	–
[1]	–	0.14

cell viability [%]
Settings	1 nM	10 nM	100 nM	1000 nM	10000 nM
[2]	97.7	97	96	79.5	19
[3]	95.9	70.7	> 100	97.1	21.8
[4]	> 100	98.8	98.6	94.3	66.8
[5]	94.2	96.4	96.6	80.8	35.8
[6]	98	96.3	99.1	99.3	78.6
[7]	> 100	94.8	86.5	77.2	65.1
[8]	82.9	68.9	60.9	63.4	25.8
[9]	98.3	93.2	95.5	93.7	62.3
[10]	90.6	89.1	96.8	87.9	40.2
[11]	93.1	86.9	72.7	46.2	20
[12]	61.7	47.7	77.9	36.6	15.5
[13]	96.8	95	96.8	85.7	54.2
[14]	> 100	97.9	94	86.8	64.4
[15]	97.5	94.9	88.4	84	64.9
[16]	> 100	63	73	36.1	3.37

COc1cc(/C=C/C(=O)N2CCC=CC2=O)cc(OC)c1OC [Piperlongumine]
Settings	IC50 (cell viability) [nM]	area under dose-response curve
BV-173	1620	–
HEL	3030	–
HL-60	2360	–
K-562	1950	–
KCL-22	2920	–
KG-1	3330	–
KU-812	2870	–
LAMA-84	3220	–
ML-2	1660	–
MOLM-13	1930	–
Mono-Mac-6	2380	–
NOMO-1	3220	–
SHI-1	2530	–
THP-1	2450	–
[1]	–	0.21

cell viability [%]
Settings	1 nM	10 nM	100 nM	1000 nM	10000 nM
[2]	82.6	88.8	68.2	53.9	< 0
[3]	52	> 100	69.9	78.6	57
[4]	83.2	96.6	86.2	> 100	2.54
[5]	81.8	98.3	76	69	21.2
[6]	99.6	88.9	95.2	80.4	3.26
[7]	93.4	84.5	70.3	75.6	3.43
[8]	9.44	76.7	31.8	39	7.88
[9]	90.5	98.5	93.3	93.6	4.56
[10]	84	96.2	98.5	70.3	1.42
[11]	60	> 100	84.6	51.3	3.72
[12]	79.5	77.8	71.8	45.5	> 100
[13]	60.5	98.5	68.7	44.8	6.11
[14]	94.1	98.5	> 100	> 100	5.04
[15]	79.2	89.3	79.2	77.1	0.503
[16]	6.78	82.5	13.4	11.1	10.1

Oc1ccc(Nc2nc(-c3ccc(Cl)cc3)cs2)cc1 [SKI II]
Settings	IC50 (cell viability) [nM]	area under dose-response curve
BV-173	1540	–
HEL	3220	–
HL-60	2260	–
K-562	2510	–
KCL-22	3070	–
KG-1	3930	–
KU-812	2900	–
LAMA-84	6790	–
ML-2	5580	–
MOLM-13	8970	–
Mono-Mac-6	4120	–
NOMO-1	> 10000	–
SHI-1	> 10000	–
THP-1	2480	–
[1]	–	0.0605

cell viability [%]
Settings	1 nM	10 nM	100 nM	1000 nM	10000 nM
[2]	65.6	94.5	54.5	89.1	25.3
[3]	79.7	> 100	62.7	11.5	< 0
[4]	75.2	98.7	95.4	93.1	16.2
[5]	77.6	94.2	89.3	92.9	32.9
[6]	89.9	92.9	95.8	> 100	53.9
[7]	64.1	> 100	> 100	88.9	32.6
[8]	20.1	79.9	67.9	24.7	4.42
[9]	95.5	95.9	95.1	94.2	53.1
[10]	69.6	93.3	85.9	87.3	33.6
[11]	56.2	92.1	89.3	44.4	0.909
[12]	49.5	47.7	> 100	9.05	81.9
[13]	58.3	97.8	69.4	29.1	6.09
[14]	89.5	97.2	98.4	92	79.3
[15]	82.4	80.7	84.5	80	42.6
[16]	34.3	41.7	45.5	25	17

CCC(=O)N1CCN(c2ccc(-n3c(=O)ccc4cnc5ccc(-c6cnc7ccccc7c6)cc5c43)cc2C(F)(F)F)CC1 [Torin1]
Settings	IC50 (cell viability) [nM]	area under dose-response curve
BV-173	377	–
HEL	594	–
HL-60	1750	–
K-562	327	–
KCL-22	251	–
KG-1	295	–
KU-812	191	–
LAMA-84	222	–
ML-2	616	–
MOLM-13	208	–
Mono-Mac-6	333	–
NOMO-1	672	–
SHI-1	> 10000	–
THP-1	1110	–
[1]	–	0.322

cell viability [%]
Settings	1 nM	10 nM	100 nM	1000 nM	10000 nM
[2]	91.6	76	59.8	40.2	12.8
[3]	75.7	74.2	88.2	44.8	37.6
[4]	97.8	89.3	94.1	62.6	62.9
[5]	91.5	77.7	75.2	43	51
[6]	90.6	91.5	92.3	91.5	89.5
[7]	85.1	60.4	44.2	30.2	21.5
[8]	80.9	57.7	62	27	12.3
[9]	92.5	94.3	74.2	62.8	64.2
[10]	80.6	55.9	20.2	14.2	12.1
[11]	96.1	> 100	93.2	66.8	62.1
[12]	63.9	96.5	30	18.6	9.9
[13]	77.2	82.1	74.3	38.1	54.1
[14]	92.9	90.9	85.8	56.7	39.4
[15]	91.1	66.9	73.1	61.7	53.7
[16]	54.5	13.5	53.9	1.18	0.265
